The record followed here is patent publication US20190350964A1, “ANTI-CANCER COMPOUNDS AND USES THEREOF” (NATIONAL UNIVERSITY OF SINGAPORE, priority 2016, published 2019).

In data set [1] the test system is HGC27. The data set can be described thus: MTT cytotoxicity test (GI50). Type of data set: cell-based. The conditions noted are these: Homo sapiens, HGC-27; HGC27, cancer, gastric; MTT 72 h. In general terms: Tetrazolium assays rely on reduction of a dye to a coloured formazan, in cell work by metabolically active cells.
Data set [2] deals with SNU1. The data set can be described thus: MTT cytotoxicity test (GI50). Type of data set: cell-based. To be noted: Homo sapiens; SNU1, cancer, gastric; MTT 72 h.
For data set [3], the system named is SCH. The data set can be described thus: MTT cytotoxicity test (GI50). To be noted: Homo sapiens, cancer, gastric, MTT 72 h. Type of data set: cell-based.
Data set [4] concerns HeLa. The data set can be described thus: MTT cytotoxicity test (GI50). Type of data set: cell-based. The conditions noted are these: Homo sapiens, cancer, others, cervix, MTT 72 h.
The subject of data set [5] is human cancer cell lines. The data set can be described thus: MTT cytotoxicity test, panel of human cancer cell lines. Type of data set: cell-based. The conditions noted are these: mean over panel of human cancer cell lines; MTT 72 h.
Data set [6] has as its system HCT-15 human colon adenocarcinoma cells. The data set can be described thus: HCT-15 tumor xenograft in nude mice. Type of data set: in vivo, mouse. The source says: BALB/c athymic female nude mice (nu/nu, 5-7 weeks) (InVivos) were kept under specific pathogen-free (SPF) conditions. The care and use of mice was approved by the Duke-NUS IACUC in accordance with protocol 2015/SHS/1030. HCT15 human colon cancer cells (5×10^6) or MDA-MB-231 human breast cancer cells (4×10^6 with Matrigel) were subcutaneously injected into the flanks of mice. When the mean tumor volume reached 100-300 mm^3 (Day 1), the mice were randomly divided into experimental groups of 6 mice by an algorithm that moves animals around to achieve the best case distribution to assure that each treatment group has similar mean tumor burden and standard deviation. No statistical method was used to predetermine sample size. […] Paclitaxel (Cayman Chemical) was dissolved in ethanol:Tween 80=1:3 (v/v) solution followed by the addition of a 5% glucose solution (final ratio, ethanol:Tween 80:5% glucose=5:15:80) and injected via the tail vain (IV). Tumor dimensions were measured using calipers, and tumor volume (mm^3) was calculated using the formula width^2×length/2 in a blinded fashion. On Day 12 (HCT15) or Day 16 (MDA-MB-231), mice were sacrificed. Tumors were collected, fixed overnight in 4% paraformaldehyde (PFA) and stored in 70% ethanol. For immunostaining, antigens were retrieved from formaldehyde-fixed, paraffin-embedded tumor tissue sections for 30 min by boiling in sodium citrate buffer (pH 6.0) using a microwave histoprocessor (Milestone). Endogenous peroxidase activity in tissue sections was depleted by treatment with 3% hydrogen peroxide (H2O2 in 1×TBS) for 20 min at room temperature. Tumor tissue sections were incubated overnight with anti-β-tubulin (Abcam; 1:100 in 3% BSA/TBS-Tween 20) at 4° C. followed by incubation with goat anti-rabbit FITC-conjugated secondary antibody (Invitrogen; 1:200 in 3% BSA/TBS) for 1 h at 25° C. After dehydration treatment, coverslips were mounted using DAPI mounting medium (Vector). Images were acquired in 3D-SIM mode using a super resolution microscope (Nikon), and the number of cells with either 2 or mitotic-spindles was quantified (n>50 cells per section, 6-7 sections per treatment). For detection of apoptosis using the TUNEL method, the ApopTag Plus Peroxidase In Situ Apoptosis Detection Kit (Millipore) was used for formaldehyde-fixed, paraffin-embedded tumor tissue sections treated with b5 (80 mg/kg, IP) or control vehicle for 12 days. Slide scans were acquired using a MetaSystems Metafer built on a Zeiss Axiolmager Z.2 upright microscope. The system is equipped with a CoolCubel camera and a Zeiss Plan-Neofluar 20×/0.5 Ph2 objective lens. Image acquisition was controlled with Metafer4 software, and stitching was performed with the VSlide software and further processed using the open source software FIJI. A custom macro was used to batch process the images in the following sequence: Gaussian filter, color deconvolution of hematoxylin and DAB, thresholding the hematoxylin image, watershed to separate touching nuclei, and then count the number of hematoxylin-stained nuclei. For the DAB image, a fixed threshold was used, watershed applied and the number of DAB stained nuclei counted. In all cases, no data or animals were excluded and results are expressed as mean and standard deviation of the mean.

For data set [7], the system named is MDA-MB-231 human breast tumor cells. The data set can be described thus: MDA-MB-231 tumor xenograft in nude mice. Type of data set: in vivo, mouse. To be noted: a131 20 mg/kg, b5 40-80 mg/kg, PO or IP twice daily, 15 days. The source says:
BALB/c athymic female nude mice (nu/nu, 5-7 weeks) (InVivos) were kept under specific pathogen-free (SPF) conditions. The care and use of mice was approved by the Duke-NUS IACUC in accordance with protocol 2015/SHS/1030. HCT15 human colon cancer cells (5×10^6) or MDA-MB-231 human breast cancer cells (4×10^6 with Matrigel) were subcutaneously injected into the flanks of mice. When the mean tumor volume reached 100-300 mm^3 (Day 1), the mice were randomly divided into experimental groups of 6 mice by an algorithm that moves animals around to achieve the best case distribution to assure that each treatment group has similar mean tumor burden and standard deviation. No statistical method was used to predetermine sample size. […] Tumor dimensions were measured using calipers, and tumor volume (mm^3) was calculated using the formula width^2×length/2 in a blinded fashion. […] Images were acquired in 3D-SIM mode using a super resolution microscope (Nikon), and the number of cells with either 2 or mitotic-spindles was quantified (n>50 cells per section, 6-7 sections per treatment). […] For the DAB image, a fixed threshold was used, watershed applied and the number of DAB stained nuclei counted. In all cases, no data or animals were excluded and results are expressed as mean and standard deviation of the mean.

Data set [8] deals with Ras-driven glioma initiating cells (GICs). The data set can be described thus: Sphere formation assay. Type of data set: cell-based, murine. The conditions noted are these: 5 μM, 7 days. Here is the method: Murine glioma-initiating cells (GICs) were established and cultured as described previously (Saga, I. et al., Neuro. Oncol. 16: 1048-1056 (2014)). Briefly, Ink4a/Arf-null neural stem/progenitor cells were transduced with human H-RasV12 and DsRed and propagated in serum-free Dulbecco modified Eagle medium (DMEM)/F12 (Sigma-Aldrich) supplemented with recombinant epidermal growth factor (EGF; PeproTech) and basic fibroblast growth factor (PeproTech) at 20 ng/ml, heparan sulfate (Sigma-Aldrich) at 200 ng/ml and B27 supplement without vitamin A (Invitrogen, Carlsbad, Calif.). GICs were dissociated and plated in 96-well plates at a density of 100 cells/well. […] Three plates were prepared for each treatment group, and 30 wells were quantified per plate. Images were acquired on a BZ-X700 inverted fluorescence microscope (Keyence). Quantification was performed by Nikon NIS-element software (n=90).

The subject of data set [9] is PIK3IP1. The data set can be described thus: qRT-PCR of PIK3IP1 mRNA in Ras- or Raf-mutant cancer cell lines. Type of data set: cell-based, human. The conditions noted are these: 2.5 and 5 μM, 24 h; compared with normal cells. The protocol: […] human […] ID NO: 11, [NT] ID NO: 12), human […] ID NO: 13, [NT] ID NO: 14), human […] ID NO: 15, [NT] ID NO: 16) and human PIK3IP1 ([NT] ID NO: 17, [NT] ID NO: 18). The TATA-binding protein (TBP) gene was used for normalization. All PCR reactions were performed in triplicate.
In general terms: In qPCR the cycle at which signal appears reflects the starting amount.

By GI50 is commonly meant the concentration that inhibits growth by half. A low value points to greater sensitivity of the cells. `N#C/C(=C\c1cccc2cnccc12)c1c[nH]c2ccccc12` [a131, (Z)-2-(1H-indol-3-yl)-3-(5-isoquinolyl)prop-2-enenitrile]: the GI50 in data set [1] was 1.2 µM; in data set [2], 0.9 µM; in data set [3], 1.7 µM; in data set [4], 1.4 µM; in data set [5], 1.7 µM. Also, the “misaligned chromosomes / multipolar spindles in tumor sections” value in [6] (HCT-15 tumor sections, Day 12) is recorded as “caused massively misaligned chromosomes with multipolar spindles in tumor sections”. The “antitumor activity (tumor volume)” value in [6] (a131 20 mg/kg, b5 40-80 mg/kg, PO or IP twice daily, 12 days, paclitaxel IV) was “marked antitumor efficacies”; in data set [7] it was “marked antitumor efficacies”. The body weight loss result in data set [6] (xenograft-bearing mice, PO or IP twice daily) is reported as “without any body weight loss”. Besides, the “growth of GICs in tumor spheroid culture” value in data set [8] is given as “significantly suppressed growth”. The “induction of PIK3IP1 in Ras- and Raf-mutant cancer cells” value in data set [9] was “significantly attenuated”.
